“And” between values parts separate entries of the source, which are not always exact repeats. Identical values can stand only once. Toxic doses and inconclusive results are not listed.

The subject of this assay is BDF1 mice, B16 melanoma ip, median survival T/C. Description: NCI In Vivo Anticancer Drug Screen. Data for tumor model B16 Melanoma (intraperitoneal) in B6D2F1 (BDF1) mice. The note with it: endpoint: median survival time, higher = longer survival. The method, boiled down: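 Each result divides a survival or tumor-size measurement in the compound-treated group by the same measurement in the vehicle group.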

Where [1] appears, read: dose: 100.0 mg/kg/injection, schedule: Q04DX003 (ip), vehicle: Klucel (hydroxypropylcellulose) (HPC).
Setting [2] is: dose: 200.0 mg/kg/injection, schedule: Q04DX003 (ip), vehicle: Klucel (hydroxypropylcellulose) (HPC).
[3] abbreviates: dose: 50.0 mg/kg/injection, schedule: Q04DX003 (ip), vehicle: Klucel (hydroxypropylcellulose) (HPC).
[4] abbreviates: dose: 6.25 mg/kg/injection, schedule: Q01DX009 (ip), vehicle: water.
Setting [5] is: dose: 12.5 mg/kg/injection, schedule: Q01DX009 (ip), vehicle: water.
Where [6] appears, read: dose: 60.0 mg/kg/injection, schedule: Q01DX009 (ip), vehicle: saline.
The mark [7] stands for this setting: dose: 25.0 mg/kg/injection, schedule: Q01DX009 (ip), vehicle: saline with Tween-80.
Setting [8] is: dose: 50.0 mg/kg/injection, schedule: Q01DX009 (ip), vehicle: saline with Tween-80.
Setting [9] is: dose: 100.0 mg/kg/injection, schedule: Q01DX009 (ip), vehicle: saline with Tween-80.
The mark [10] stands for this setting: dose: 100.0 mg/kg/injection, schedule: Q01DX009 (ip), vehicle: Klucel (hydroxypropylcellulose) (HPC).
[11] abbreviates: dose: 200.0 mg/kg/injection, schedule: Q01DX009 (ip), vehicle: Klucel (hydroxypropylcellulose) (HPC).

As to `Cc1ccc(Cl)cc1NC(=O)Nc1ccc(Cl)c(Cl)c1`, the T/C by setting is: (dose: 75.0 mg/kg/injection, schedule: Q01DX009 (ip), vehicle: Klucel (hydroxypropylcellulose) (HPC)) 97 % of control; (dose: 150.0 mg/kg/injection, schedule: Q01DX009 (ip), vehicle: Klucel (hydroxypropylcellulose) (HPC)) 92 % of control.
On to `N=[N+]=CC(=O)CCC(NC(=O)C(CCC(=O)C=[N+]=N)NC(=O)CCC(N)C(=O)O)C(=O)O` (stereo not given), for which the T/C (dose: 0.01 mg/kg/injection, schedule: Q01DX009 (ip), vehicle: other) was 96 % of control and 100 % of control and 106 % of control; the T/C (dose: 0.05 mg/kg/injection, schedule: Q01DX009 (ip), vehicle: saline) is 100 % of control; the T/C (dose: 0.1 mg/kg/injection, schedule: Q01DX009 (ip), vehicle: saline) is 117 % of control; the T/C (dose: 0.1 mg/kg/injection, schedule: Q01DX009 (ip), vehicle: suspension in saline) is 90 % of control; the T/C (dose: 0.2 mg/kg/injection, schedule: Q01DX009 (ip), vehicle: Klucel (hydroxypropylcellulose) (HPC)) was 90 % of control; the T/C (dose: 0.2 mg/kg/injection, schedule: Q01DX009 (ip), vehicle: suspension in saline) was 103 % of control. For the same compound, the T/C (dose: 0.4 mg/kg/injection, schedule: Q01DX009 (ip), vehicle: Klucel (hydroxypropylcellulose) (HPC)) is 92 % of control; the T/C (dose: 0.4 mg/kg/injection, schedule: Q01DX009 (ip), vehicle: suspension in saline) was 101 % of control; the T/C (dose: 0.5 mg/kg/injection, schedule: Q01DX009 (ip), vehicle: other) was 87 % of control; the T/C (dose: 0.8 mg/kg/injection, schedule: Q01DX009 (ip), vehicle: Klucel (hydroxypropylcellulose) (HPC)) was 100 % of control; the T/C (dose: 0.8 mg/kg/injection, schedule: Q01DX009 (ip), vehicle: suspension in saline) was 100 % of control; the T/C (dose: 1.6 mg/kg/injection, schedule: Q01DX009 (ip), vehicle: Klucel (hydroxypropylcellulose) (HPC)) was 100 % of control. Also, the T/C is, setting by setting: (dose: 1.6 mg/kg/injection, schedule: Q01DX009 (ip), vehicle: suspension in saline) 105 % of control; (dose: 2.5 mg/kg/injection, schedule: Q04DX003 (ip), vehicle: water) 105 % of control; (dose: 5.0 mg/kg/injection, schedule: Q04DX003 (ip), vehicle: water) 105 % of control; (dose: 10.0 mg/kg/injection, schedule: Q04DX003 (ip), vehicle: other) 122 % of control; (dose: 10.0 mg/kg/injection, schedule: Q04DX003 (ip), vehicle: water) 107 % of control; (dose: 5.0 micrograms/kg/injection, schedule: Q01DX009 (ip), vehicle: water) 123 % of control. Also, the T/C is, setting by setting: (dose: 10.0 micrograms/kg/injection, schedule: Q01DX009 (ip), vehicle: water) 94 % of control; (dose: 50.0 micrograms/kg/injection, schedule: Q01DX009 (ip), vehicle: water) 115 % of control; (dose: 100.0 micrograms/kg/injection, schedule: Q01DX009 (ip), vehicle: water) 89 % of control.
Regarding `CCCc1c(C)[nH]c2ccccc12`, the T/C is, setting by setting: under setting [1], 94 % of control; under setting [2], 100 % of control; (dose: 400.0 mg/kg/injection, schedule: Q04DX003 (ip), vehicle: Klucel (hydroxypropylcellulose) (HPC)) 88 % of control.
As to `O=[N+]([O-])c1cccs1`, the T/C was 105 % of control (dose: 25.0 mg/kg/injection, schedule: Q04DX003 (ip), vehicle: Klucel (hydroxypropylcellulose) (HPC)); 105 % of control under setting [3]; 112 % of control under setting [1].
On to `NC(=O)CNC1=C(N2CC2)C(=O)C(NCC(N)=O)=C(N2CC2)C1=O`, for which the T/C was 96 % of control (dose: 0.5 mg/kg/injection, schedule: Q01DX009 (ip), vehicle: saline); 115 % of control (dose: 1.0 mg/kg/injection, schedule: Q01DX009 (ip), vehicle: saline); 124 % of control (dose: 4.0 mg/kg/injection, schedule: Q01DX009 (ip), vehicle: saline).
Regarding `Cc1nc(C(=O)O)c(C)c(=O)[nH]1`, the T/C is, setting by setting: (dose: 1.56 mg/kg/injection, schedule: Q01DX009 (ip), vehicle: water) 100 % of control; (dose: 3.13 mg/kg/injection, schedule: Q01DX009 (ip), vehicle: water) 96 % of control; under setting [4], 105 % of control; under setting [5], 100 % of control.
Regarding `CC(C)(C)OC(=O)C(CC(=O)O)NC(=O)OCc1ccccc1` (stereo not given) (tested in a mixture with another compound), the T/C is 107 % of control (dose: 15.0 mg/kg/injection, schedule: Q01DX009 (ip), vehicle: saline); 102 % of control (dose: 30.0 mg/kg/injection, schedule: Q01DX009 (ip), vehicle: saline); 108 % of control under setting [6].
For the compound `CC[P+](CC)(CC)CCCCI`, the T/C (dose: 50.0 mg/kg/injection, schedule: Q01DX009 (ip), vehicle: saline) was 93 % of control.
For `O=C(O)C1CCCCC1C(=O)Nc1ccc(F)cc1` (stereo not given), the T/C under setting [7] was 105 % of control; the T/C under setting [8] was 105 % of control; the T/C under setting [9] is 88 % of control and 96 % of control.
Turning to `[Cl][Mn][Cl]`, the T/C reads like this: under setting [4], 100 % of control; under setting [5], 98 % of control; (dose: 17.8 mg/kg/injection, schedule: Q01DX009 (ip), vehicle: saline) 104 % of control; (dose: 17.8 mg/kg/injection, schedule: Q01DX009 (sc), vehicle: water) 101 % of control; (dose: 25.0 mg/kg/injection, schedule: Q01DX009 (ip), vehicle: water) 109 % of control; (dose: 26.7 mg/kg/injection, schedule: Q01DX009 (ip), vehicle: saline) 110 % of control and 114 % of control. Also, the T/C is 99 % of control (dose: 26.7 mg/kg/injection, schedule: Q01DX009 (sc), vehicle: water); 107 % of control and 117 % of control (dose: 40.0 mg/kg/injection, schedule: Q01DX009 (ip), vehicle: saline); 104 % of control (dose: 40.0 mg/kg/injection, schedule: Q01DX009 (sc), vehicle: water); 114 % of control (dose: 50.0 mg/kg/injection, schedule: Q01DX009 (ip), vehicle: water); 106 % of control and 119 % of control under setting [6]; 163 % of control (dose: 60.0 mg/kg/injection, schedule: Q01DX009 (ip), vehicle: water). Moreover, the T/C (dose: 60.0 mg/kg/injection, schedule: Q01DX009 (sc), vehicle: water) was 104 % of control and the T/C (dose: 90.0 mg/kg/injection, schedule: Q01DX009 (sc), vehicle: water) was 104 % of control.
In the case of `CCOc1ccccc1NC(=O)c1cccc(C(=O)Nc2ccccc2OCC)c1`, the T/C is, setting by setting: under setting [10], 105 % of control; under setting [11], 94 % of control; (dose: 400.0 mg/kg/injection, schedule: Q01DX009 (ip), vehicle: Klucel (hydroxypropylcellulose) (HPC)) 94 % of control.
For the compound `C=C1C(=O)OC2C=C(C)C3C(O)CC(C)(O)C3CC12` (stereo not given), under setting [10], the T/C is 88 % of control.
Consider `CC1(C)CC1(Br)Br`, for which the T/C (dose: 6.25 mg/kg/injection, schedule: Q01DX009 (ip), vehicle: saline with Tween-80) is 112 % of control; the T/C (dose: 12.5 mg/kg/injection, schedule: Q01DX009 (ip), vehicle: saline with Tween-80) was 110 % of control; the T/C under setting [7] was 118 % of control; the T/C under setting [8] is 102 % of control; the T/C under setting [9] is 110 % of control.
As for `O=C(O)CC(=O)O.[NH-]CC[NH-].[Pt+2]`, the T/C (dose: 3.12 mg/kg/injection, schedule: Q01DX009 (ip), vehicle: dextrose) is 119 % of control; the T/C (dose: 12.5 mg/kg/injection, schedule: Q01DX009 (ip), vehicle: dextrose) was 171 % of control; the T/C (dose: 25.0 mg/kg/injection, schedule: Q01DX009 (ip), vehicle: Klucel (hydroxypropylcellulose) (HPC)) was 197 % of control and 214 % of control.
As for `COc1ccc(NC(=O)Oc2ccccc2Cc2ccccc2)cc1`, the T/C (dose: 50.0 mg/kg/injection, schedule: Q01DX009 (ip), vehicle: Klucel (hydroxypropylcellulose) (HPC)) is 96 % of control; the T/C under setting [3] was 96 % of control; the T/C under setting [10] is 93 % of control; the T/C under setting [1] was 96 % of control; the T/C under setting [11] was 100 % of control; the T/C under setting [2] is 93 % of control.

(Values after PubChem BioAssay AID192 (DTP/NCI, 2004).)
